This note sets out measurements from ChEMBL document CHEMBL1156106 (J Med Chem, 2009).

Series [1] concerns Rattus norvegicus. In words: Effect on behavioural activity in rat assessed as cocaine-induced lever response at 5 mg/kg, ip pretreated with cocaine for 60 mins by drug-discrimination studies. The following applies: route intraperitoneal. The class given is functional.
Series [2] relates to Rattus norvegicus. Briefly: Effect on behavioural activity in rat assessed as cocaine-induced lever response at 10 mg/kg, ip pretreated with cocaine for 60 mins by drug-discrimination studies. The class given is functional. The following applies: route intraperitoneal.
Series [3] relates to Rattus norvegicus. In words: Effect on behavioural activity in rat assessed as cocaine-induced lever response at 25 mg/kg, ip pretreated with cocaine for 60 mins by drug-discrimination studies. Format: functional. The following applies: route intraperitoneal.
In series [4] the target is T1, Sodium-dependent dopamine transporter (Homo sapiens, UniProt Q01959). Briefly: Displacement of [125I]RTI55 from cloned human DAT expressed in HEK293 cells. Format: cell-based. On the technique in general: In a radioligand displacement assay an active substance lowers the binding of a labelled ligand.
T1 sequence (Q01959 whole entry): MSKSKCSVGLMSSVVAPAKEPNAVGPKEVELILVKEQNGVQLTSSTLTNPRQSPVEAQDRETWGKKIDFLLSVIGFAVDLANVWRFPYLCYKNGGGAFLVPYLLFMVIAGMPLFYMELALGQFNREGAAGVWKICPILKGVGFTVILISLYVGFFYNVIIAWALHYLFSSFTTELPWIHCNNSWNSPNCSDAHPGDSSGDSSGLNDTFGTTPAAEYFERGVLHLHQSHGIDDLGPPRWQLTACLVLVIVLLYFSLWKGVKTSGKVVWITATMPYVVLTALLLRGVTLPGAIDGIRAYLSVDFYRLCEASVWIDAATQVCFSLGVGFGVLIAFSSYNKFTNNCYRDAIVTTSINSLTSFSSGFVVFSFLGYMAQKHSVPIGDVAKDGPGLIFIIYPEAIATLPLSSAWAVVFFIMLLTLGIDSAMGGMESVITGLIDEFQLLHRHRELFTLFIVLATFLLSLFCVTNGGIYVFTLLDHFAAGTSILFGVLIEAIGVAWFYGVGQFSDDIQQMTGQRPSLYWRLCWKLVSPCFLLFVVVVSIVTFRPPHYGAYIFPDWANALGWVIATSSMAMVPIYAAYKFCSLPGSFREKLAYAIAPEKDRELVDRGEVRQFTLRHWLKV
The target of series [5] is T2, Sodium-dependent serotonin transporter (Homo sapiens, UniProt P31645). Briefly: biochemical. The class given is cell-based, HEK293.
T2 sequence (P31645 whole entry): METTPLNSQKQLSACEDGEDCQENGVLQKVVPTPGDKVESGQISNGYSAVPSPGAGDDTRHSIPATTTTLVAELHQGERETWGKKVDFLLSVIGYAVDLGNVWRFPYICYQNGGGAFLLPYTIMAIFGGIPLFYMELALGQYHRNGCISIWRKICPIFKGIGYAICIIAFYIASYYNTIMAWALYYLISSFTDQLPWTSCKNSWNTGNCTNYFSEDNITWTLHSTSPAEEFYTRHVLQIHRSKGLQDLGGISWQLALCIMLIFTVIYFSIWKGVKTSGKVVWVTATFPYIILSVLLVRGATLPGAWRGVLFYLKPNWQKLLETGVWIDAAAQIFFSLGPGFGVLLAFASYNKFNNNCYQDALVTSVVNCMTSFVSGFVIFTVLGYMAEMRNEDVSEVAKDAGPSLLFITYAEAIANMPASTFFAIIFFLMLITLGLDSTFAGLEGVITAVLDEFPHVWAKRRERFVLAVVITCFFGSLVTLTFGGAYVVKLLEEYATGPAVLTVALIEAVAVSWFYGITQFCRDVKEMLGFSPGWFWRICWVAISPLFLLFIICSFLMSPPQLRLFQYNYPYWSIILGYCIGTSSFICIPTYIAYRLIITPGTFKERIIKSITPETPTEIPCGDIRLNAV
Series [6] deals with T3, Sodium-dependent noradrenaline transporter (Homo sapiens, UniProt P23975). In words: Displacement of [125I]RTI55 from cloned human NET expressed in HEK293 cells. Format: cell-based.
T3 sequence (P23975 whole entry): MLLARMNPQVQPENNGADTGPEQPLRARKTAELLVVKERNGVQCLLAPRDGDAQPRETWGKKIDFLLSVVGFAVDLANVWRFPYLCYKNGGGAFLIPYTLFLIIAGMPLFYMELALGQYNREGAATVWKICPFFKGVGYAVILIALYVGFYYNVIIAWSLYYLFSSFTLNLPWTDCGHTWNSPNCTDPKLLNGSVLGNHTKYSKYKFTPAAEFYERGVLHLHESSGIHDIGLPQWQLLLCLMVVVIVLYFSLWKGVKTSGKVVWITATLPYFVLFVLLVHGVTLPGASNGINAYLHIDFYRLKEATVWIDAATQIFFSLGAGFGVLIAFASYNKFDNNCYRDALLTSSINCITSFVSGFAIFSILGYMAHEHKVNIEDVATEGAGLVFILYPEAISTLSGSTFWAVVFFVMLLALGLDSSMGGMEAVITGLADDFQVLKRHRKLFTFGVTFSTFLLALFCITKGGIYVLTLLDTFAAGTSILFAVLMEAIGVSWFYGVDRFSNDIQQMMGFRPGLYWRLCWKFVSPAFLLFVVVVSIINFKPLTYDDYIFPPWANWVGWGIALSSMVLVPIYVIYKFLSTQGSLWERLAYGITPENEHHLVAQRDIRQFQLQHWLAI
Series [7] has as its target T1, Sodium-dependent dopamine transporter. In words: Inhibition of [3H]dopamine reuptake at human DAT expressed in HEK293 cells. Format: cell-based.
Series [8] deals with T2, Sodium-dependent serotonin transporter. Briefly: Inhibition of [3H]serotonin reuptake at human SERT expressed in HEK293 cells. The class given is cell-based.
The target of series [9] is T3, Sodium-dependent noradrenaline transporter. Briefly: Inhibition of [3H]norepinephrine reuptake at human NET expressed in HEK293 cells. The class given is cell-based.
Series [10] has as its system Mus musculus. Briefly: Antidepressant activity in ip dosed mouse assessed as stimulation of locomotor activity. Format: functional.
Series [11] deals with Mus musculus. In words: Antidepressant activity in ip dosed mouse assessed as stimulation of locomotor activity relative to cocaine. The class given is functional.
The test system of series [12] is Mus musculus. In words: Antidepressant activity in ip dosed mouse assessed as time to reach peak stimulation of locomotor activity. Format: functional.
The test system of series [13] is Mus musculus. In words: Antidepressant activity in ip dosed mouse assessed as duration of locomotor activity. The class given is functional.
For series [14], the system named is Rattus norvegicus. In words: Toxicity in rat assessed as adverse effects at 50 mg/kg, ip. The class given is organism-based. On the set-up: dose 50 mg/kg, route intraperitoneal. The settings on record: in vivo.
The subject of series [15] is Rattus norvegicus. Briefly: Effect on behavioural activity in rat assessed as cocaine-induced lever response at 25 mg/kg, ip pretreated with cocaine for 240 mins by drug-discrimination studies. The class given is functional. The following applies: route intraperitoneal.
The subject of series [16] is Rattus norvegicus. Briefly: Effect on behavioural activity in rat assessed as cocaine-induced lever response at 50 mg/kg, ip pretreated with cocaine for 240 mins by drug-discrimination studies. The class given is functional. The following applies: route intraperitoneal.
In series [17] the test system is Rattus norvegicus. In words: Effect on behavioural activity in ip dosed rat assessed as cocaine-induced lever response pretreated with cocaine by drug-discrimination studies. The class given is functional.
Series [18] has as its system Rattus norvegicus. Briefly: Effect on behavioural activity in rat assessed as cocaine-induced lever response at 2.5 mg/kg, po pretreated with cocaine for 45 mins by drug-discrimination studies. Format: functional.
The subject of series [19] is Rattus norvegicus. In words: Effect on behavioural activity in rat assessed as cocaine-induced lever response at 2.5 mg/kg, po pretreated with cocaine for 90 mins by drug-discrimination studies. The class given is functional.
Series [20] has as its system Rattus norvegicus. Briefly: Effect on behavioural activity in rat assessed as cocaine-induced lever response at 2.5 mg/kg, po pretreated with cocaine for 180 mins by drug-discrimination studies. Format: functional.
The test system of series [21] is Rattus norvegicus. Briefly: Effect on behavioural activity in rat assessed as cocaine-induced lever response at 2.5 mg/kg, po pretreated with cocaine for 360 mins by drug-discrimination studies. Format: functional.
Series [22] concerns Rattus norvegicus. Briefly: Effect on behavioural activity in rat assessed as cocaine-induced lever response at 5 mg/kg, po pretreated with cocaine for 45 mins by drug-discrimination studies. Format: functional.
Series [23] relates to Rattus norvegicus. In words: Effect on behavioural activity in rat assessed as cocaine-induced lever response at 5 mg/kg, po pretreated with cocaine for 90 mins by drug-discrimination studies. The class given is functional.
For series [24], the system named is Rattus norvegicus. In words: Effect on behavioural activity in rat assessed as cocaine-induced lever response at 5 mg/kg, po pretreated with cocaine for 180 mins by drug-discrimination studies. The class given is functional.
The test system of series [25] is Rattus norvegicus. Briefly: Effect on behavioural activity in rat assessed as cocaine-induced lever response at 5 mg/kg, po pretreated with cocaine for 360 mins by drug-discrimination studies. Format: functional.
Series [26] relates to Rattus norvegicus. In words: Effect on behavioural activity in rat assessed as cocaine-induced lever response at 10 mg/kg, po pretreated with cocaine for 45 mins by drug-discrimination studies. Format: functional.
For series [27], the system named is Rattus norvegicus. Briefly: Effect on behavioural activity in rat assessed as cocaine-induced lever response at 10 mg/kg, po pretreated with cocaine for 90 mins by drug-discrimination studies. Format: functional.
Series [28] has as its system Rattus norvegicus. Briefly: Effect on behavioural activity in rat assessed as cocaine-induced lever response at 10 mg/kg, po pretreated with cocaine for 180 mins by drug-discrimination studies. The class given is functional.
Series [29] concerns Rattus norvegicus. In words: Effect on behavioural activity in rat assessed as cocaine-induced lever response at 10 mg/kg, po pretreated with cocaine for 360 mins by drug-discrimination studies. Format: functional.
For series [30], the system named is Rattus norvegicus. Briefly: Effect on behavioural activity in rat assessed as cocaine-induced lever response at 25 mg/kg, po pretreated with cocaine for 45 mins by drug-discrimination studies. Format: functional.
Series [31] relates to Rattus norvegicus. In words: Effect on behavioural activity in rat assessed as cocaine-induced lever response at 25 mg/kg, po pretreated with cocaine for 90 mins by drug-discrimination studies. The class given is functional.
For series [32], the system named is Rattus norvegicus. In words: Effect on behavioural activity in rat assessed as cocaine-induced lever response at 25 mg/kg, po pretreated with cocaine for 180 mins by drug-discrimination studies. Format: functional.
Series [33] concerns Rattus norvegicus. Briefly: Effect on behavioural activity in rat assessed as cocaine-induced lever response at 25 mg/kg, po pretreated with cocaine for 360 mins by drug-discrimination studies. The class given is functional.
For series [34], the system named is Rattus norvegicus. In words: Effect on behavioural activity in rat assessed as cocaine-induced lever response at 50 mg/kg, po pretreated with cocaine for 45 mins by drug-discrimination studies. The class given is functional.
Series [35] deals with Rattus norvegicus. In words: Effect on behavioural activity in rat assessed as cocaine-induced lever response at 50 mg/kg, po pretreated with cocaine for 90 mins by drug-discrimination studies. Format: functional.
The subject of series [36] is Rattus norvegicus. In words: Effect on behavioural activity in rat assessed as cocaine-induced lever response at 50 mg/kg, po pretreated with cocaine for 180 mins by drug-discrimination studies. Format: functional.
The test system of series [37] is Rattus norvegicus. In words: Effect on behavioural activity in rat assessed as cocaine-induced lever response at 50 mg/kg, po pretreated with cocaine for 360 mins by drug-discrimination studies. The class given is functional.
In series [38] the test system is Rattus norvegicus. In words: Effect on behavioural activity in rat assessed as cocaine-induced lever response at 100 mg/kg, po pretreated with cocaine for 45 mins by drug-discrimination studies. The class given is functional.
For series [39], the system named is Rattus norvegicus. In words: Effect on behavioural activity in rat assessed as cocaine-induced lever response at 100 mg/kg, po pretreated with cocaine for 90 mins by drug-discrimination studies. The class given is functional.
The test system of series [40] is Rattus norvegicus. In words: Effect on behavioural activity in rat assessed as cocaine-induced lever response at 100 mg/kg, po pretreated with cocaine for 180 mins by drug-discrimination studies. The class given is functional.
For series [41], the system named is Rattus norvegicus. Briefly: Effect on behavioural activity in rat assessed as cocaine-induced lever response at 100 mg/kg, po pretreated with cocaine for 360 mins by drug-discrimination studies. Format: functional.
Series [42] deals with Rattus norvegicus. Briefly: Effect on behavioural activity in po dosed rat assessed as cocaine-induced lever response pretreated with cocaine by drug-discrimination studies. Format: functional.
For series [43], the system named is Rattus norvegicus. Briefly: Effect on behavioural activity in rat assessed as cocaine-induced lever response at 2.5 mg/kg, ip pretreated with cocaine for 30 mins by drug-discrimination studies. Format: functional. The settings on record: route intraperitoneal.
Series [44] has as its system Rattus norvegicus. In words: Effect on behavioural activity in rat assessed as cocaine-induced lever response at 10 mg/kg, ip pretreated with cocaine for 30 mins by drug-discrimination studies. The following applies: route intraperitoneal. Format: functional.
The subject of series [45] is Rattus norvegicus. In words: Effect on behavioural activity in rat assessed as cocaine-induced lever response at 50 mg/kg, ip pretreated with cocaine for 30 mins by drug-discrimination studies. The class given is functional. The settings on record: route intraperitoneal.
For series [46], the system named is Rattus norvegicus. Briefly: Effect on behavioural activity in rat assessed as cocaine-induced lever response at 10 mg/kg, ip pretreated with cocaine for 45 mins by drug-discrimination studies. Format: functional. The settings on record: route intraperitoneal.
Series [47] relates to Rattus norvegicus. Briefly: Effect on behavioural activity in rat assessed as cocaine-induced lever response at 100 mg/kg, ip pretreated with cocaine for 45 mins by drug-discrimination studies. The class given is functional. The following applies: route intraperitoneal.

Broadly, the Ki is the equilibrium dissociation constant of an inhibitor or competing ligand from its target. One may read the IC50 as the midpoint of a concentration-inhibition curve. Lower therefore signals greater potency. For orientation: ED50 means the dose at which the effect has come halfway, by size or by number of responders. In the case of `CC(C)(C)NC(CCC1CCCCC1)C(=O)c1cccc(Cl)c1` (centres undefined), the Activity in the series with Rattus norvegicus [1] was 0.2%; with Rattus norvegicus [2], 0.7%; with Rattus norvegicus [3] it was 69.6%; with Mus musculus [11], 33%; in the series with Rattus norvegicus [14] it was “Toxic”. Moreover, the Ki in series [4] was 1700 nM; in series [5], 6.2 µM; in [6] it was 3.8 µM. Moreover, the half-inhibitory concentration (IC50) in series [7], in series [8] and in [9] was over 10 µM in each case. In the series with Mus musculus [10], the ED50 worked out at 14.1 mg/kg. In the series with Mus musculus [12], the “Time to peak locomotor stimulation” value is recorded as 60 min. For the same compound, in the series with Mus musculus [13], the Time is 160 min.

`CC(NC(C)(C)C)C(=O)c1ccc(Cl)c(Cl)c1` (centres undefined) showed an IC50 in [8] of over 10 µM. Also, the ED50 in the series with Mus musculus [10] amounted to 26.9 mg/kg. The Activity in the series with Mus musculus [11] is given as 61%; in the series on Rattus norvegicus [15] it was 16.7%; in the series on Rattus norvegicus [16] it was 22.4%. For the same compound, the “Time to peak locomotor stimulation” value with Mus musculus [12] is given as 270 min. Also, the Time in the series on Mus musculus [13] came to 140 min.

With `CC(NC(C)(C)C)C(=O)c1cc(F)cc(F)c1` (centres undefined), the ED50 was 7.8 mg/kg in the series on Rattus norvegicus [17], 35 mg/kg in the series with Mus musculus [10] and 41.5 mg/kg in the series with Rattus norvegicus [42]. The Activity in the series on Rattus norvegicus [18] was determined as 0%; in the series on Rattus norvegicus [19], 20%; with Rattus norvegicus [20], 0%; with Rattus norvegicus [21], 0%; in the series on Rattus norvegicus [22], 31%; in the series with Rattus norvegicus [23] it was 7%. Further, the Activity in the series on Rattus norvegicus [24] stood at 0%; with Rattus norvegicus [25] it was 0%; in the series on Rattus norvegicus [26] it was 0%; in the series on Rattus norvegicus [27], 33%; in the series with Rattus norvegicus [28] it was 0%; with Rattus norvegicus [29], 3%. Further, the Activity in the series with Rattus norvegicus [30] stood at 4%; in the series with Rattus norvegicus [31], 25%; in the series on Rattus norvegicus [32], 0%; in the series with Rattus norvegicus [33], 7%; with Rattus norvegicus [34], 67%; in the series on Rattus norvegicus [35], 58%. The Activity is 20% with Rattus norvegicus [36]; 0% in the series with Rattus norvegicus [37]; 18% in the series on Rattus norvegicus [38]; 84% in the series with Rattus norvegicus [39]; 17% with Rattus norvegicus [40]; 84% with Mus musculus [11]. Further, the Activity in the series on Rattus norvegicus [41] is given as 0%; with Rattus norvegicus [43], 0%; in the series on Rattus norvegicus [44], 16.7%; in the series on Rattus norvegicus [45], 83.3%. Further, the Ki in series [5] and in series [6] was over 10 µM throughout. Further, in the series with Mus musculus [12], the “Time to peak locomotor stimulation” value was 0 min. The Time in the series with Mus musculus [13] came to 280 min.

`CC(NC(C)(C)C)C(=O)c1ccc(F)c(F)c1` (centres undefined): the Ki in series [4] was over 10000 nM; in series [5] it was over 10 µM; in series [6], over 10 µM. Also, the Activity in the series on Mus musculus [11] is on record as 58%; in the series with Rattus norvegicus [46], 1.7%; in the series with Rattus norvegicus [47] it was 63.9%. Besides, the “Time to peak locomotor stimulation” value in the series on Mus musculus [12] is recorded as 10 min. Besides, the Time in the series with Mus musculus [13] is 60 min.
